Data on seven compounds can be found in patent US7550469B2, “Heterocyclic amide derivatives and their use as dopamine D3 receptor ligands” (Aventis Pharmaceuticals Inc., priority 2001, dated 2009).

The target of data set [1] is T1, cloned human alpha-1A adrenergic receptors (α1a) (Homo sapiens, UniProt P35348).
T1 construct: expressed in transfected cells; host or cells: CHO cells, G418-resistant clone, pcDNA3 vector; membrane fragments
T1 sequence (P35348 1-466): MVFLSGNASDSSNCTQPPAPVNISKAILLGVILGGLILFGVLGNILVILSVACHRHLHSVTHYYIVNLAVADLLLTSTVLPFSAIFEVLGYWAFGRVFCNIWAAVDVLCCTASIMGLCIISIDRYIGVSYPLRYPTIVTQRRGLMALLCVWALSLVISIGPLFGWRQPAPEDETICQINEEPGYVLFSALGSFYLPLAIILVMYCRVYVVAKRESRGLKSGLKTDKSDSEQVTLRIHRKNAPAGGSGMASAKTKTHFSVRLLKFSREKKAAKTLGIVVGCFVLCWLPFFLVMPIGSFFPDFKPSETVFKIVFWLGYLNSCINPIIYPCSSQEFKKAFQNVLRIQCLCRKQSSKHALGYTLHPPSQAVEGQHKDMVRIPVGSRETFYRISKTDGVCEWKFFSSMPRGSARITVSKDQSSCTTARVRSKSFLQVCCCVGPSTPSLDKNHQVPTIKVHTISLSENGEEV
Description: [3H]Prazosin binding to cloned human alpha-1A adrenergic receptors expressed in CHO cells. To be noted: human α-1; 6-fluoro vs 6-trifluoromethyl benzo[b]thiophene pairs; read-out: halpha 1 Ki (nM) h = human. The text has this:
^3H]PRAZOSIN BINDING TO CLONED HUMAN ALPHA-1A ADRENERGIC RECEPTORS (α1a) EXPRESSED IN CHINESE HAMSTER OVARY CELLS (CHO)
Purpose: This in vitro assay is designed as a screen to identify compounds displaying a affinity for the human α1a adrenoceptor subtype expressed in the membrane fragments of CHO cells. The assay measures the ability of the test compounds to displace [^3H] prazosin from α1a sites. • The identification of multiple vascular α1-addrenoceptors (α1a, α1b, α1d) in vitro has provided impetus to define the role(s) of these subtypes in cardiovascular regulation in vivo (Vargas and Gorman, 1995). […] Prazosin is a potent antagonist of the human α1a-adrenoceptor subtype, which has been cloned and is expressed in the membrane fragments of CHO cells. hα1a Receptor: The cloning of the human α1a cDNA was accomplished first by screening a human prostate cDNA library (Clontech), from which a portion of the coding region was obtained. This DNA fragment was then used to screen a human leukocyte genomic library (Clontech), and the rest of the coding sequence was obtained. Later these two fragments were spliced together. The entire coding sequence was then fully sequenced including matching PCR sequence with original genomic coding sequence, thus ensuring splice sites were joined correctly (Schwinn et al., 1995). Once sequenced, the gene was subcloned into the expression vector pcDNA3 (Invitrogen). Plasmid DNA was then used for transfection into CHO cells and G418 resistant clones were isolated. A clone expressing high levels of the hα1a receptor (as determined by mRNA and receptor binding data) was chosen and pharmacologically characterized. Culture Media: Media Ingredients for Adherent α1a expressing CHO Culture: • A. HAM's F-12 (Cellgro) • B. 10% 0.2 micron filtered Fetal Bovine Serum (FBS)(Cellgro) • C. 1% 0.2 micron filtered Penicillin-Streptomycin (Celigro) • D. G418 0.2 micron filtered (Geneticin 400 μg/ml)(Cellgro) • Cells are cultured using established methods and procedures in either 150×25 mm culture plates (scale up to 100 plates) or a combination of these plates and 70 roller bottles. One culturing/harvest cycle typically requires 2 weeks and yields between 100-400 mg protein. Plates or bottles are incubated at 37° C.+5% CO2. Storage: Cells are harvested by mechanical scraping, washed using PBS, collected in 250 ml Corning polypropylene centrifuge tubes, spun down (1500RPM) and resuspended in dH2O 10% DMSO (final volume per harvest is approximately 50 ml). Protein determination is made using the Biorad DC Assay Kit. Finally, the appropriate volume is aliquoted into a 2 ml Corning Cryovial (10 mg/1-1.5 ml) which is stored at −80° C. Current Lot Data:
Assay Requirement: 0.5 cryovials per 96 well plate (assay volume=200 μl/well) [^3H]-Ligand: [7-methoxy-^3H]-Prazosin: 1.0 nM (NEN, NET-823) • 70-87 Ci/mmol Materials: Phentolamine mesylate (Research Biochemicals Int. #P-131) • 96 well flat bottom plates (Beckman) • Unifilter GF/B Plate (Packard) • Polyethylenimine (Sigma #P-3134) • TomTec or Packard Filtermate 196 Cell Harvesters • Packard TopCount Scintillation Counter Buffers: A: 50 mM Tris HCl; 0.1% ascorbate, pH 7.7 (incubation buffer) • B: 50 mM Tris HCl; pH 7.7 (wash buffer) Procedure: Assay additions are as follows (in the order indicated): • Total Binding=50 μl buffer A+50 μl [^3H]prazosin+100 μl membrane • Nonsp. Bd.=50 μl 10 μM phentolamine+50 μl [^3H]prazosin+100 μl membrane • Test Cpd.=50 μl compound+50 μl [^3H]prazosin+100 μl membrane • Compounds to be evaluated are weighed out to yield a 10 mM stock solution in DMSO in a 24 well polystyrene plate. This is diluted to a 0.5 mM stock in dH2O. Serial dilutions in Buffer A are made from which 50 μl additions to the plate are made in duplicate in order to achieve the final concentrations desired. Typically, one 96 well plate is used to evaluate 11 compounds at 4 concentrations (10^−6-10^−9 M) in duplicate. […]

The target of data set [2] is Alpha-1 adrenergic receptors from rat brain cortex. Description: [3H]Prazosin binding to alpha-1 adrenergic receptors from rat brain cortex (Protocol 4). The text has this:
[^3H]Prazosin Binding to Alpha-1 Adrenergic Receptors from Rat Brain Cortex
Objective: This in vitro assay is designed as a screen to identify compounds displaying a affinity for the a, adrenoceptor subtype in membranes from rat cortex. It measures the ability of the test compounds to displace [^3H]prazosin from the α1 sites.
Membrane Preparation: Rat brain tissue can be obtained from either fresh (male Wistar rats; 200-250 g) or frozen (male Sprague-Dawley 200-250 g from Harlan; cat. #BT-403) stocks. The cortex is dissected, homogenized in 50 vol (wet weight) ice-cold 50 mM Tris buffer (pH 7.7 at 25° C.). The homogenate is centrifuged at 48,000 g for 10 min, the pellet is resuspended in 50 mM Tris buffer and centrifuged a second time. The second pellet (P2) is resuspended to yield a concentration of 115 mg wet weight per 10 ml. […] Membranes should be mixed just before addition to ensure an even suspension. […] This is diluted to a 0.5 mM stock in dH2O. Serial dilutions in Buffer A are made from which 50 μl additions to the plate are made in duplicate in order to achieve the final concentrations desired. Typically, one 96 well plate is used to evaluate 11 compounds at 4 concentrations (10^−6-10^−9 M) in duplicate. Total binding and nonspecific binding are determined in quadruplicate. Usually one standard is run with each assay. • [^3H]Prazosin is made up in Buffer A such that when 50 μl are added per well the final concentration is […] in a final assay volume of 200 μl. The final concentration should be verified by running a sample in a scintillation counter prior to adding the [^3H]prazosin to the 96 well plate. Note: The radioactivity should be prepared just before the additions are made so that it is not allowed to sit on the bench for very long. • Packard GF/B Plate Pretreatment: The filter plates are presoaked for at least 30 min in ice cold Buffer B containing 0.05% polyethyleneimine (200 μl/200 ml) to maximize filtration efficiency and minimize filter blank binding. • Incubation & Filtration: Once buffer, compounds, [^3H]prazosin and membrane have been added (and mixed), the 96 well plates are incubated for 40 min at 37° C. and spaced 3-5 min apart. At 40 min, the plates are filtered using a Tomtec Automated Cell Harvester. Filtration is immediately followed by washes of ice cold Buffer B (total vol. ˜7 ml). • Drying and Counting: Each filter plate is dried under a heat lamp for 15 min. The back of the plate is sealed and 40 μl of Packard microscint fluid are added per well. Using Packard film, each plate is heat sealed prior to being counted in a Packard Topcount Scintillation counter. A program has been written that counts each plate twice sending DPM, CPM and TSIS data to disk and printer. • Analysis of Results: Raw DPM and CPM data are captured on disk and are imported into one of several software packages (Graphpad Prism Ver 2.0, Excel) residing on the LAN. Specific binding is defined as the difference between total binding and the binding in the presence of 10 μM phentolamine. Total binding is less than 10% of the total added ligand. Software using one-site competition curve analysis is employed in the calculation of IC50 and KI (Cheng-Prusoff equation, 1973). The top and bottom of the non-linear regression are held constant at 0% and 100% inhibition. The percent inhibition at each drug concentration is the mean of duplicate determinations.

[3] abbreviates: rat α-1, read-out: rat alpha 1 Ki.
The mark [4] stands for this setting: r = rat, piperazines (n = 1) vs homopiperazines (n = 2), read-out: r-α1 Ki.

The structures appear in SMILES notation. Read-outs that look alike come from different tables or passages of the source.

As to `Cl.c1cc2onc(C3CCNCC3)c2s1`, the melting point lay in the range of 263 to 265 °C.
`O=C(NCCCCN1CCN(c2csc3cc(F)ccc23)CC1)c1ccc(-c2ccccc2)cc1` [813585A]: the Ki in data set [1] came out at 5.67 nM.
Consider `CCOc1ccc(C(=O)NCCCCN2CCN(c3csc4cc(F)ccc34)CC2)cc1` [compound 813914], for which, in data set [2] (setting [3]), the Ki is 3 nM.
As to `O=C(NCCCCN1CCN(c2csc3cc(F)ccc23)CC1)c1c(F)cccc1F` [compound 813918], the Ki in data set [2] (setting [3]) turned out to be 4 nM.
The same measure, in the same setting: with `O=C(NCCCCN1CCN(c2csc3cc(F)ccc23)CC1)c1ccc(F)cc1F` [compound 813920] the figure was 2 nM.
With `O=C(NCCCCN1CCN(c2csc3cc(F)ccc23)CC1)c1ccc2[nH]ccc2c1` [compound 814018], the Ki in data set [2] (setting [4]) turned out to be 5 nM.
Still for that read-out and setting: to `O=C(NCCCCN1CCN(c2csc3cc(F)ccc23)CC1)c1c[nH]c2ccccc12` [compound 814026] belongs 12 nM.

A word on the melting point: it is the temperature of the solid-liquid transition. The term Ki denotes a measure of affinity in units of concentration, obtained from inhibition or displacement.
